Experiments:
[1] = biological target: T1, Tubulin alpha chain (Sus scrofa, UniProt P02550)
[2] = biological target: T1, Tubulin alpha chain; test: Inhibition of tubulin polymerization interacting at the colchicine binding site

T1 sequence (P02550 whole entry, looked up): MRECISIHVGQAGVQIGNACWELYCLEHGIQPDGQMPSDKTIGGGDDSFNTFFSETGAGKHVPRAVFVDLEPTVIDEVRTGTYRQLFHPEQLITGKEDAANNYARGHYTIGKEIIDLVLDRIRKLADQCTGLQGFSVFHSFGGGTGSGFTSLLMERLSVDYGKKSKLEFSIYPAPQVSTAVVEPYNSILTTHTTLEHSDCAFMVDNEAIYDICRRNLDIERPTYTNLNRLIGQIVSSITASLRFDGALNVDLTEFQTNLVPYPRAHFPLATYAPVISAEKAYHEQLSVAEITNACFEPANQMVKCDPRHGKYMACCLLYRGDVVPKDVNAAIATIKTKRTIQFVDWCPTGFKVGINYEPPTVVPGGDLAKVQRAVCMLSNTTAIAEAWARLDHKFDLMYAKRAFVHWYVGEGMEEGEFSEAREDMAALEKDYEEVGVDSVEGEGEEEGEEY

## COc1cc2c(c(OC)c1OC)-c1ccc(SC)c(=O)cc1[C@@H](OC(=O)C13CCC(C)(C(=O)O1)C3(C)C)CC2 (some centres not stated)
[1]
  IC50: 1.41 µM

## COc1cc2c(c(OC)c1OC)-c1ccc(SC)cc1[C@@H](O)C=C2
[1]
  IC50: 1.82 µM

## COc1cccc(-c2cc(O)c3cc(N4CCOCC4)ccc3n2)c1
[1]
  IC50: 0.363 µM

## COc1cc2c(c(OC)c1OC)-c1ccc(SC)cc1[C@@H](OC(=O)c1cccnc1)CC2
[1]
  IC50: 4.79 µM

## Cc1ccc2c(O)cc(-c3cccc(Cl)c3)nc2n1
[1]
  IC50: 0.891 µM

## Cc1ccc(-c2cc(O)c3c(C)ccnc3n2)cc1
[1]
  IC50: 2.88 µM

## COc1cc2c(c(OC)c1OC)-c1ccc(SC)c(=O)cc1[C@@H](NCc1ccc([N+](=O)[O-])cc1)CC2
[1]
  IC50: 2.29 µM

## COc1cc2c(c(OC)c1OC)-c1ccc(SC)c(=O)cc1[C@@H](COC(=O)c1cccc(C#N)c1)C2
[1]
  IC50: 3.02 µM

## COc1cccc([C@@H]2CC(=O)c3cc4c(cc3N2)OCO4)c1
[1]
  IC50: 0.692 µM

## Cc1cc(C)c2c(O)cc(-c3cccc4ccccc34)nc2n1
[1]
  IC50: 0.776 µM

## Oc1cc(-c2cccc(Cl)c2)nc2ncccc12
[1]
  IC50: 1.51 µM

## Cc1ccc(-c2cc(O)c3cc(C)cnc3n2)cc1
[1]
  IC50: 2.4 µM

## Oc1cc(-c2ccc3ccccc3c2)nc2ncc(Cl)cc12
[1]
  IC50: 2.51 µM

## Oc1cc(-c2ccccc2F)nc2ccc(N3CCCC3)cc12
[1]
  IC50: 0.457 µM

## Cc1ccc2c(O)cc(-c3cccs3)nc2n1
[1]
  IC50: 6.03 µM

## Cc1ccc2c(O)cc(-c3sccc3C)nc2n1
[1]
  IC50: 2.82 µM

## Oc1cc(-c2ccc3ccccc3c2)nc2ncccc12
[1]
  IC50: 14.1 µM

## Cc1cc(C)c2c(O)cc(-c3cccc(F)c3)nc2n1
[1]
  IC50: 0.741 µM

## COc1ccc2c(c1)CC=Cc1cc(OC)c(OC)c(OC)c1-2
[1]
  IC50: 1.51 µM

## Cc1ccnc2nc(-c3cccc4ccccc34)cc(O)c12
[1]
  IC50: 0.933 µM

## Cc1cnc2nc(-c3ccc(Cl)cc3)cc(O)c2c1
[1]
  IC50: 2 µM

## COc1cc2c(c(OC)c1OC)-c1ccc(SC)cc1[C@H](OC(=O)c1ccccc1)CC2
[1]
  IC50: 2.69 µM

## Cc1cnc2nc(-c3ccc(C)s3)cc(O)c2c1
[1]
  IC50: 2.69 µM

## Cc1cnc2nc(-c3cccc(Cl)c3)cc(O)c2c1
[1]
  IC50: 0.724 µM

## COc1cc2c(c(OC)c1OC)-c1ccc(SC)c(=O)cc1[C@@H](NC(=O)CC(C)=O)CC2
[1]
  IC50: 1.41 µM

## COc1cccc(-c2cc(O)c3cc4c(cc3n2)OCO4)c1
[1]
  IC50: 0.575 µM

## O=C(Oc1cccc(-c2cc(O)c3cc4c(cc3n2)OCO4)c1)c1ccccc1
[1]
  IC50: 0.447 µM

## Cc1cccc(-c2cc(O)c3cccnc3n2)c1
[1]
  IC50: 3.31 µM

## Cc1ccc2c(=O)cc(-c3cccc(F)c3)[nH]c2n1
[1]
  IC50: 0.525 µM

## COc1cccc(-c2cc(O)c3c(C)cc(C)nc3n2)c1
[1]
  IC50: 0.871 µM

## Oc1cc(-c2cccc(Cl)c2)nc2cc3c(cc12)OCO3
[1]
  IC50: 0.372 µM

## Cc1cnc2nc(-c3cccc(F)c3)cc(O)c2c1
[2]
  IC50: 0.631 µM

## Oc1cc(-c2cccc(C(F)(F)F)c2)nc2cc3c(cc12)OCO3
[1]
  IC50: 0.813 µM

## COc1cccc(-c2cc(O)c3cc(C)cnc3n2)c1
[1]
  IC50: 0.794 µM

## COc1cc2c(c(OC)c1OC)-c1ccc(SC)c(=O)cc1[C@@H](NCc1ccc(C#N)cc1)CC2
[1]
  IC50: 2.51 µM

## COc1ccc2c(c1)CCCc1cc(OC)c(OC)c(OC)c1-2
[1]
  IC50: 1.91 µM

## COc1cc2c(c(OC)c1OC)-c1ccc(SC)c(=O)cc1[C@@H](COC(=O)c1ccccc1F)C2
[1]
  IC50: 3.63 µM

## Cc1ccc(-c2cc(O)c3c(C)cc(C)nc3n2)cc1
[1]
  IC50: 10 µM

## COc1ccc(-c2cc(O)c3c(C)ccnc3n2)cc1
[1]
  IC50: 8.71 µM

## COc1cccc(-c2cc(O)c3cc(N(C)C)ccc3n2)c1
[1]
  IC50: 0.38 µM

## Cc1cccc(-c2cc(O)c3cc(C)cnc3n2)c1
[1]
  IC50: 1.51 µM

## Cc1cnc2nc(-c3cccc4ccccc34)cc(O)c2c1
[1]
  IC50: 0.55 µM

## Cc1ccc2c(O)cc(-c3ccc(Br)s3)nc2n1
[1]
  IC50: 1.51 µM

## COc1cc2c(c(OC)c1OC)-c1ccc(SC)c(=O)cc1[C@@H](NC(=O)C13CCC(C)(C(=O)O1)C3(C)C)CC2 (some centres not stated)
[1]
  IC50: 2.4 µM

## COc1ccc2c(c1)C(NC(C)=O)CCc1cc(OC)c(OC)c(OC)c1-2 (configuration not stated)
[1]
  IC50: 1.51 µM

## Cc1ccnc2nc(-c3ccc(Cl)cc3)cc(O)c12
[1]
  IC50: 4.79 µM

## Cc1ccc2c(O)cc(-c3ccc4ccccc4c3)nc2n1
[1]
  IC50: 5.13 µM

## COc1cccc(-c2cc(O)c3c(Br)ccnc3n2)c1
[1]
  IC50: 1.51 µM

## Cc1ccc2c(O)cc(-c3cc(C)sc3C)nc2n1
[1]
  IC50: 4.79 µM

## CNc1cccc(-c2cc(O)c3cc4c(cc3n2)OCO4)c1
[1]
  IC50: 0.646 µM

## COc1ccc(CN[C@H]2CCc3cc(OC)c(OC)c(OC)c3-c3ccc(SC)c(=O)cc32)c(OC)c1OC
[1]
  IC50: 2.29 µM

## Cc1ccnc2nc(-c3ccc4ccccc4c3)cc(O)c12
[1]
  IC50: 1.82 µM

## COc1cccc(-c2cc(O)c3cccnc3n2)c1
[1]
  IC50: 0.955 µM

## COc1cc2c(c(OC)c1O)-c1ccc(SC)c(=O)cc1[C@@H](NC(=O)CC(C)=O)CC2
[1]
  IC50: 3.31 µM

## COc1ccc2c(c1)C=CCc1cc(OC)c(OC)c(OC)c1-2
[1]
  IC50: 2.19 µM

## COC(=O)c1ccc2c(c1)C(NC(C)=O)CCc1cc(OC)c(OC)c(OC)c1-2 (configuration not stated)
[1]
  IC50: 1.41 µM

## Cc1ccc2c(O)cc(-c3ccc(Cl)s3)nc2n1
[1]
  IC50: 1.7 µM

## Cc1ccc2c(O)cc(-c3ccsc3)nc2n1
[1]
  IC50: 7.94 µM

## COc1cc2c(c(OC)c1OC)-c1ccc(SC)c(=O)cc1[C@@H](COC(=O)c1cccc(F)c1)C2
[1]
  IC50: 3.39 µM

## COc1cc2c(c(OC)c1OC)-c1ccc(SC)c(=O)cc1[C@@H](COC(=O)c1ccc(F)cc1)C2
[1]
  IC50: 4.47 µM

## Cc1cnc2nc(-c3sccc3C)cc(O)c2c1
[1]
  IC50: 3.8 µM

## Cc1cnc2nc(-c3ccc4ccccc4c3)cc(O)c2c1
[1]
  IC50: 2.09 µM

## COc1cc2c(c(OC)c1OC)-c1ccc(SC)c(=O)cc1[C@@H](NCc1ccc(F)cc1)CC2
[1]
  IC50: 3.24 µM

## COc1cc2c(c(OC)c1OC)-c1ccc(SC)cc1[C@@H](OC(C)=O)CC2
[1]
  IC50: 2.82 µM

## COc1cccc(-c2cc(O)c3ccccc3n2)c1
[1]
  IC50: 1.41 µM

## Oc1cc(-c2cccc(F)c2)nc2cc3c(cc12)OCO3
[1]
  IC50: 0.525 µM

## Cc1ccc2c(O)cc(-c3cccc4ccccc34)nc2n1
[1]
  IC50: 0.661 µM

## COc1c(O)cc2c(c1OC)-c1ccc(SC)c(=O)cc1[C@@H](NC(C)=O)CC2C=O (some centres not stated)
[1]
  IC50: 2.82 µM

## Cc1ccc(-c2cc(O)c3ccc(C)nc3n2)cc1
[1]
  IC50: 4.9 µM

## Oc1cccc(-c2cc(O)c3cc4c(cc3n2)OCO4)c1
[1]
  IC50: 0.468 µM

## Cc1ccc2c(O)cc(-c3ccc(Cl)cc3)nc2n1
[1]
  IC50: 11 µM

## COc1ccc(-c2cc(O)c3cc(C)cnc3n2)cc1
[1]
  IC50: 7.76 µM

## Oc1cc(-c2ccc(F)cc2)nc2ncc(Cl)cc12
[1]
  IC50: 15.8 µM

## Cc1cccc(-c2cc(O)c3ccc(C)nc3n2)c1
[1]
  IC50: 1.91 µM

## COc1cc2c(c(OC)c1OC)-c1ccc(SC)c(=O)cc1[C@@H](OC(=O)c1ccncc1)CC2
[1]
  IC50: 0.562 µM

## COc1cccc([C@H]2CC(=O)c3cc4c(cc3N2)OCO4)c1
[1]
  IC50: 2.34 µM

## COc1cccc(-c2cc(O)c3c(Cl)ccnc3n2)c1
[1]
  IC50: 0.724 µM

## COc1cccc(-c2cc(O)c3ccc(C)nc3n2)c1
[1]
  IC50: 0.759 µM

## COc1cc2c(c(OC)c1OC)-c1ccc(SC)cc1[C@H](OC(C)=O)CC2
[1]
  IC50: 3.09 µM

## CCCC(=O)O[C@H]1CCc2cc(OC)c(OC)c(OC)c2-c2ccc(SC)cc21
[1]
  IC50: 2.82 µM

## COc1ccccc1-c1cc(O)c2cc(C)cnc2n1
[1]
  IC50: 18.2 µM

## CCCC(=O)O[C@@H]1CCc2cc(OC)c(OC)c(OC)c2-c2ccc(SC)cc21
[1]
  IC50: 4.79 µM

## Cc1ccc2c(O)cc(-c3ccc(C)s3)nc2n1
[1]
  IC50: 1.7 µM

## COc1cc2c(c(OC)c1OC)-c1ccc(SC)cc1[C@H](OC(=O)c1cccnc1)CC2
[1]
  IC50: 2.4 µM

## Cc1cc(C)c2c(O)cc(-c3cccc(Cl)c3)nc2n1
[1]
  IC50: 0.776 µM

## Cc1ccnc2nc(-c3ccc(F)cc3)cc(O)c12
[1]
  IC50: 18.2 µM

## Oc1cc(-c2cccc3ccccc23)nc2ncccc12
[1]
  IC50: 1.1 µM

## COc1cc2c(c(OC)c1OC)-c1ccc(SC)c(=O)cc1[C@@H](OC(=O)c1cccnc1)CC2
[1]
  IC50: 0.759 µM

## Nc1cccc(-c2cc(O)c3cc4c(cc3n2)OCO4)c1
[1]
  IC50: 0.724 µM

## COc1c(O)cc2c(c1OC)-c1ccc(SC)c(=O)cc1[C@@H](NC(=O)CC(C)=O)CC2
[1]
  IC50: 1.7 µM

## COc1cc2c(c(OC)c1O)-c1ccc(SC)c(=O)cc1[C@@H](NC(C)=O)CC2
[1]
  IC50: 1.51 µM

## Oc1cc(-c2cccs2)nc2cc3c(cc12)OCO3
[1]
  IC50: 2.19 µM

From ChEMBL document CHEMBL1133658 (J Med Chem, 2000)
